Results taken from patent US11084800B2 (Achillion Pharmaceuticals, Inc., priority 2017, dated 2021).

Target: Human Factor D (Homo sapiens (Human), UniProt P00746)
Test: Human Factor D Assay
Assay type: biochemical
Details: not given
In short: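 Thioester substrate Z-L-Lys-SBz (100 μM) with Ellman's reagent DTNB (100 μM) reports activity of 80 nM human serum-derived enzyme, kinetically at 405 nm over 30 min. Compound preincubated 5 min, room temperature, pH 7.5 Tris/1 M NaCl; IC50 by nonlinear fit of rates.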

Sequence of Human Factor D (P00746 26-253): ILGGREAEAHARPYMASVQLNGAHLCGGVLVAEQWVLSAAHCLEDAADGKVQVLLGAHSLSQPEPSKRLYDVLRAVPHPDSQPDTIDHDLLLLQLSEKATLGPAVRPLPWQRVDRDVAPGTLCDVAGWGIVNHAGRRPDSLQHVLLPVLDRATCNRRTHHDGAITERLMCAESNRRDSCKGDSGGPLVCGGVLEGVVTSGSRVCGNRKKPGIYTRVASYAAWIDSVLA

Row | SMILES | IC50 [µM]
1 | CC(=O)c1nn(CC(=O)N2[C@H](C(=O)NC(Cc3ccccc3)Cc3ccccc3)C[C@@]3(C)C[C@@H]23)c2c(C)cc(-c3cnc(C)nc3)cc12 [Compound 505, (1R,3S,5R)-2-(2-(3-Acetyl-7-methyl-5-(2-methylpyrimidin-5-yl)-1H-indazol-1-yl)acetyl)-N-(1,3-diphenylpropan-2-yl)-5-methyl-2-azabicyclo[3.1.0]hexane-3-carboxamide] | 1 to 10

Same assay, conditions: Factor D inhibition, assay of Example 10; read-out: IC5 (Stars)

Row | SMILES | IC50 [µM]
2 | COc1cc(-c2cnc(C)nc2)cc2c(C(C)=O)nn(CC(=O)N3[C@H](C(=O)Nc4nc(Br)ccc4C)C[C@@]4(C)C[C@@H]34)c12 [Compound 494, (1R,3S,5R)-2-(2-(3-acetyl-7-methoxy-5-(2-methylpyrimidin-5-yl)-1H-indazol-1-yl)acetyl)-N-(6-bromo-3-methylpyridin-2-yl)-5-methyl-2-azabicyclo[3.1.0]hexane-3-carboxamide] | < 1
3 | CC(=O)c1nn(CC(=O)N2[C@H](C(=O)NCC(=O)O)C[C@@]3(C)C[C@@H]23)c2c(C)cc(-c3cnc(C)nc3)cc12 [Compound 495, ((1R,3S,5R)-2-(2-(3-acetyl-7-methyl-5-(2-methylpyrimidin-5-yl)-1H-indazol-1-yl)acetyl)-5-methyl-2-azabicyclo[3.1.0]hexane-3-carbonyl)glycine] | 1 to 10
4 | CC(=O)c1nn(CC(=O)N2[C@H](C(=O)NCCC(=O)O)C[C@@]3(C)C[C@@H]23)c2c(C)cc(-c3cnc(C)nc3)cc12 [Compound 497, 3-((1R,3S,5R)-2-(2-(3-acetyl-7-methyl-5-(2-methylpyrimidin-5-yl)-1H-indazol-1-yl)acetyl)-5-methyl-2-azabicyclo[3.1.0]hexane-3-carboxamido)propanoic acid] | < 1
5 | CC(=O)c1nn(CC(=O)N2[C@H](C(=O)NCCCC(=O)O)C[C@@]3(C)C[C@@H]23)c2c(C)cc(-c3cnc(C)nc3)cc12 [Compound 498, 4-((1R,3S,5R)-2-(2-(3-acetyl-7-methyl-5-(2-methylpyrimidin-5-yl)-1H-indazol-1-yl)acetyl)-5-methyl-2-azabicyclo[3.1.0]hexane-3-carboxamido)butanoic acid] | < 1
6 | CC(=O)c1nn(CC(=O)N2[C@H](C(=O)NC(C)(C)c3cccc(Cl)c3F)C[C@@]3(C)C[C@@H]23)c2c(C)cc(-c3cnc(C)nc3)cc12 [Compound 502, (1R,3S,5R)-2-(2-(3-acetyl-7-methyl-5-(2-methylpyrimidin-5-yl)-1H-indazol-1-yl)acetyl)-N-(2-(3-chloro-2-fluorophenyl)propan-2-yl)-5-methyl-2-azabicyclo[3.1.0]hexane-3-carboxamide] | < 1
7 | CC(=O)c1nn(CC(=O)N2[C@H](C(=O)Nc3cc(C(N)=O)cc(Br)n3)C[C@@]3(C)C[C@@H]23)c2ccc(-c3cnc(C)nc3)cc12 [Compound 503, (1R,3S,5R)-2-(2-(3-acetyl-5-(2-methylpyrimidin-5-yl)-1H-indazol-1-yl)acetyl)-N-(6-bromo-4-carbamoylpyridin-2-yl)-5-methyl-2-azabicyclo[3.1.0]hexane-3-carboxamide] | < 1
8 | CC(=O)c1nn(CC(=O)N2[C@H](C(=O)Nc3cc(OCc4ccccc4)cc(Br)n3)C[C@@]3(C)C[C@@H]23)c2ccc(-c3cnc(C)nc3)cc12 [Compound 504, (1R,3S,5R)-2-(2-(3-acetyl-5-(2-methylpyrimidin-5-yl)-1H-indazol-1-yl)acetyl)-N-(4-(benzyloxy)-6-bromopyridin-2-yl)-5-methyl-2-azabicyclo[3.1.0]hexane-3-carboxamide] | < 1
9 | CNC(=O)[C@@H]1C[C@@]2(C)C[C@H]2N1C(=O)Cn1nc(C(C)=O)c2cc(-c3cnc(C)nc3)cc(C)c21 [Compound 513, (1R,3S,5R)-2-(2-(3-acetyl-7-methyl-5-(2-methylpyrimidin-5-yl)-1H-indazol-1-yl)acetyl)-N,5-dimethyl-2-azabicyclo[3.1.0]hexane-3-carboxamide] | < 1
10 | CC(=O)c1nn(CC(=O)N2[C@H](C(=O)Nc3cc(CC(=O)O)cc(Br)n3)C[C@@]3(C)C[C@@H]23)c2ccc(-c3cnc(C)nc3)cc12 [Compound 514, 2-(2-((1R,3S,5R)-2-(2-(3-acetyl-5-(2-methylpyrimidin-5-yl)-1H-indazol-1-yl)acetyl)-5-methyl-2-azabicyclo[3.1.0]hexane-3-carboxamido)-6-bromopyridin-4-yl)acetic Acid] | < 1
11 | CCCc1cc(Br)nc(NC(=O)[C@@H]2C[C@@]3(C)C[C@H]3N2C(=O)Cn2nc(C(C)=O)c3cc(-c4cnc(C)nc4)ccc32)c1 [Compound 516, (1R,3S,5R)-2-(2-(3-Acetyl-5-(2-methylpyrimidin-5-yl)-1H-indazol-1-yl)acetyl)-N-(6-bromo-4-propylpyridin-2-yl)-5-methyl-2-azabicyclo[3.1.0]hexane-3-carboxamide] | 1 to 10
12 | CC(=O)c1nn(CC(=O)N2[C@H](C(=O)NC(CC(C)C)CC(C)C)C[C@@]3(C)C[C@@H]23)c2c(C)cc(-c3cnc(C)nc3)cc12 [Compound 517, (1R,3S,5R)-2-(2-(3-acetyl-7-methyl-5-(2-methylpyrimidin-5-yl)-1H-indazol-1-yl)acetyl)-N-(2,6-dimethylheptan-4-yl)-5-methyl-2-azabicyclo[3.1.0]hexane-3-carboxamide] | < 1
13 | CNCCCNC(=O)[C@@H]1C[C@@]2(C)C[C@H]2N1C(=O)Cn1nc(C(C)=O)c2cc(-c3cnc(C)nc3)ccc21 [Compound 519, (1R,3S,5R)-2-(2-(3-acetyl-5-(2-methylpyrimidin-5-yl)-1H-indazol-1-yl)acetyl)-5-methyl-N-(3-(methylamino)propyl)-2-azabicyclo[3.1.0]hexane-3-carboxamide] | 1 to 10
14 | CC(=O)c1nn(CC(=O)N2[C@H](C(=O)NCCCN(C)C)C[C@@]3(C)C[C@@H]23)c2ccc(-c3cnc(C)nc3)cc12 [Compound 520, (1R,3S,5R)-2-(2-(3-acetyl-5-(2-methylpyrimidin-5-yl)-1H-indazol-1-yl)acetyl)-N-(3-(dimethylamino)propyl)-5-methyl-2-azabicyclo[3.1.0]hexane-3-carboxamide] | 1 to 10

Same assay, conditions: Table 8; Factor D 80 nM, substrate Z-L-Lys-SBz; read-out: IC50

Row | SMILES | IC50 [µM]
15 | Cc1ncc(-c2ccc3c(c2)c(C(=O)NCC(F)(F)F)nn3CC(=O)N2[C@H](C(=O)Nc3nc(Br)ccc3C)C[C@@]3(C)C[C@@H]23)cn1 [Compound 499, 1-(2-((1R,3S,5R)-3-((6-bromo-3-methylpyridin-2-yl)carbamoyl)-5-methyl-2-azabicyclo[3.1.0]hexan-2-yl)-2-oxoethyl)-5-(2-methylpyrimidin-5-yl)-N-(2,2,2-trifluoroethyl)-1H-indazole-3-carboxamide] | < 1
16 | Cc1ncc(-c2ccc3c(c2)c(C(=O)NCC(C)C)nn3CC(=O)N2[C@H](C(=O)Nc3nc(Br)ccc3C)C[C@@]3(C)C[C@@H]23)cn1 [Compound 500, 1-(2-((1R,3S,5R)-3-((6-bromo-3-methylpyridin-2-yl)carbamoyl)-5-methyl-2-azabicyclo[3.1.0]hexan-2-yl)-2-oxoethyl)-N-isobutyl-5-(2-methylpyrimidin-5-yl)-1H-indazole-3-carboxamide] | < 1
17 | Cc1ncc(-c2cc(C#N)c3c(c2)c(C(N)=O)nn3CC(=O)N2[C@H](C(=O)Nc3nc(Br)ccc3C)C[C@@]3(C)C[C@@H]23)cn1 [Compound 515] | < 1
